Tested on in one data set: not given
Experiment: not given
Conditions: not given
Consider `COC(=O)N1CCN(C2Cc3ccc(NC(=O)c4cccc(C)c4-c4ccc(C(F)(F)F)cc4)cc3C2)CC1` (racemic) [Example 1, 6-Methyl-4′-trifluoromethyl-1,1′-biphenyl-N-[2[4-(methoxycarbonyl)-piperazino]-indan-5-yl]-2-carboxamide], for which the melting point was in the range of 161 to 163 °C.

The compound `Cc1cccc(C(=O)Nc2ccc3c(c2)CC(N2CCN(c4ccccc4)CC2)C3)c1-c1ccc(C(F)(F)F)cc1` (stereo not drawn) [Example 2] came in with a melting point of 236 to 238 °C.

Take `Cc1cccc(C(=O)Nc2ccc3c(c2)CC(N2CCN(C)CC2)C3)c1-c1ccc(C(F)(F)F)cc1` (stereo not drawn) [Example 3]: the melting point was in the range of 209 to 210 °C.

`Cc1cccc(C(=O)Nc2ccc3c(c2)CC(N2CCN(Cc4ccccc4)CC2)C3)c1-c1ccc(C(F)(F)F)cc1` (stereo not drawn) [Example 4] showed a melting point of 188 to 191 °C.

As for `COC(=O)N1CCN(C2Cc3ccc(NC(=O)c4cccc(C(F)(F)F)c4-c4ccc(C(F)(F)F)cc4)cc3C2)CC1` (stereo not drawn) [Example 5], the melting point is 210 to 212 °C.

Regarding `COC(=O)N1CCN(C2Cc3ccc(NC(=O)c4ccccc4-c4ccc(C(F)(F)F)cc4)cc3C2)CC1` (stereo not drawn) [Example 6], the melting point is 204 to 206 °C.

`Cc1cccc(C(=O)Nc2ccc3c(c2)CC(N2CCOCC2)C3)c1-c1ccc(C(F)(F)F)cc1` (stereo not drawn) [Example 7] registered a melting point of 201 to 204 °C.

Compound `O=C(Nc1ccc2c(c1)CC(N1CCOCC1)C2)c1ccccc1-c1ccc(C(F)(F)F)cc1` (stereo not drawn) [Example 8] yielded a melting point of 191 to 194 °C.

`COC(=O)C1CCN(C2Cc3ccc(NC(=O)c4cccc(C)c4-c4ccc(C(F)(F)F)cc4)cc3C2)CC1` (stereo not drawn) [Example 9] showed a melting point of 191 to 195 °C.

`COC1CCN(C2Cc3ccc(NC(=O)c4cccc(C)c4-c4ccc(C(F)(F)F)cc4)cc3C2)CC1` (stereo not drawn) [Example 10] returned a melting point of 197 to 199 °C.

The compound `Cc1cccc(C(=O)Nc2ccc3c(c2)CC(N2CCC4(CC2)OCCO4)C3)c1-c1ccc(C(F)(F)F)cc1` (stereo not drawn) [Example 11] showed a melting point of 202 to 203 °C.

The compound `Cc1cccc(C(=O)Nc2ccc3c(c2)CC(N2CCC(C)CC2)C3)c1-c1ccc(C(F)(F)F)cc1` (stereo not drawn) [Example 12] showed a melting point of 219 to 221 °C.

`COC(=O)N1CCN(C2Cc3ccc(NC(=O)c4cccc(OC)c4-c4ccc(F)cc4)cc3C2)CC1` (stereo not drawn) [Example 13] yielded a melting point of 132 to 134 °C.

Regarding `COC(=O)N1CCN([C@@H]2Cc3ccc(NC(=O)c4cccc(C)c4-c4ccc(C(F)(F)F)cc4)cc3C2)CC1` [Example 14, (R)-6-Methyl-4′-trifluoromethyl-1,1′-biphenyl-N-[2-[4-(methoxycarbonyl)-piperazino]indan-5-yl]-2-carboxamide], the melting point was 163 to 164 °C.

For `CCCC(=O)N1CCN(C2Cc3ccc(NC(=O)c4cccc(C)c4-c4ccc(C(F)(F)F)cc4)cc3C2)CC1` (stereo not drawn) [Example 21], the melting point was in the range of 173 to 176 °C.

In turn, `CC(=O)N1CCN(C2Cc3ccc(NC(=O)c4cccc(C(F)(F)F)c4-c4ccc(C(F)(F)F)cc4)cc3C2)CC1` (stereo not drawn) [Example 22] returned a melting point of 184 to 186 °C.

`Cc1ccc(S(=O)(=O)N2CCN(C3Cc4ccc(NC(=O)c5cccc(C)c5-c5ccc(C(F)(F)F)cc5)cc4C3)CC2)cc1` (stereo not drawn) [Example 23] registered a melting point of 153 to 154 °C.

On to `Cc1cccc(C(=O)Nc2ccc3c(c2)CC(N2CCN(S(C)(=O)=O)CC2)C3)c1-c1ccc(C(F)(F)F)cc1` (stereo not drawn) [Example 24], for which the melting point was 205 to 208 °C.

Take `Cc1cccc(C(=O)Nc2ccc3c(c2)CC(N2CCN(C(=O)c4ccncc4)CC2)C3)c1-c1ccc(C(F)(F)F)cc1` (stereo not drawn) [Example 25]: the melting point fell in the range of 158 to 160 °C.

As for `COCC(=O)N1CCN(C2Cc3ccc(NC(=O)c4cccc(C)c4-c4ccc(C(F)(F)F)cc4)cc3C2)CC1` (stereo not drawn) [Example 26], the melting point lay in the range of 161 to 162 °C.

As for `Cc1cccc(C(=O)Nc2ccc3c(c2)CC(N2CCN(C(=O)N(C)C)CC2)C3)c1-c1ccc(C(F)(F)F)cc1` (stereo not drawn) [Example 27], the melting point lay within 217 to 218 °C.

As for `Cc1cccc(C(=O)Nc2ccc3c(c2)CC(N2CCN(C(=O)c4ccccc4)CC2)C3)c1-c1ccc(C(F)(F)F)cc1` (stereo not drawn) [Example 28], the melting point was 120 to 123 °C.

As for `Cc1cccc(C(=O)Nc2ccc3c(c2)CC(N2CCN(C(=O)COCc4ccccc4)CC2)C3)c1-c1ccc(C(F)(F)F)cc1` (stereo not drawn) [Example 29], the melting point was in the range of 160 to 161 °C.

Compound `Cc1cccc(C(=O)Nc2ccc3c(c2)CC(N2CCN(C(=O)CO)CC2)C3)c1-c1ccc(C(F)(F)F)cc1` (stereo not drawn) [Example 30] gave a melting point of 86 to 88 °C.

Take `Cc1cccc(C(=O)Nc2ccc3c(c2)CC(N2CCN(Cc4ccccn4)CC2)C3)c1-c1ccc(C(F)(F)F)cc1` (stereo not drawn) [Example 31, 6-methyl-4′-trifluoromethyl-1,1′-biphenyl-N-[2-[4-(2-pyridinylmethyl)piperazino]indan-5-yl]-2-carboxamide]: the melting point was 190 to 194 °C.

As to `COC(=O)N1CCN(C2Cc3ccc(NC(=O)c4cccc(C)c4-c4ccc(F)cc4)cc3C2)CC1` (stereo not drawn) [Example 37], the melting point fell in the range of 141 to 142 °C.

For the compound `COC(=O)N1CCN(C2Cc3ccc(NC(=O)c4cccc(OC)c4-c4ccc(C(F)(F)F)cc4)cc3C2)CC1` (stereo not drawn) [Example 38], the melting point lay within 176 to 178 °C.

`COC(=O)N1CCN(C2Cc3ccc(NC(=O)c4ccccc4-c4ccccc4)cc3C2)CC1` (stereo not drawn) [Example 39] yielded a melting point of 164 to 168 °C.

Take `COC(=O)N1CCN(C2Cc3ccc(NC(=O)c4ccccc4-c4ccc(C)cc4)cc3C2)CC1` (stereo not drawn) [Example 41]: the melting point was in the range of 136 to 138 °C.

Tested on in a further data set: not listed separately
Kind of data set: in vivo lowering of plasma triglycerides and cholesterol. To be noted: dose of 5 mg/kg p.o. An excerpt: (§1) The corresponding relevant subject matter of said PCT application is herewith incorporated by reference into the present specification.
For the compound `COC(=O)N1CCN([C@@H]2Cc3ccc(NC(=O)c4cccc(C)c4-c4ccc(C(F)(F)F)cc4)cc3C2)CC1` [Example 14, (R)-6-Methyl-4′-trifluoromethyl-1,1′-biphenyl-N-[2-[4-(methoxycarbonyl)-piperazino]indan-5-yl]-2-carboxamide], the plasma cholesterol result was “lowers” and the plasma triglycerides entry is on record as “lowers”.

Another data set has as its system apolipoprotein B (apo B) secretion. Kind of data set: apo B assay. Format: cell-based.
Conditions: not given
Description: as §1
Compound `COC(=O)N1CCN([C@@H]2Cc3ccc(NC(=O)c4cccc(C)c4-c4ccc(C(F)(F)F)cc4)cc3C2)CC1` [Example 14, (R)-6-Methyl-4′-trifluoromethyl-1,1′-biphenyl-N-[2-[4-(methoxycarbonyl)-piperazino]indan-5-yl]-2-carboxamide] registered an IC50 of roughly 2 nM.

Another data set deals with microsomal triglyceride transfer protein (MTP) (Homo sapiens, UniProt P55157). Kind of data set: MTP assay. Format: biochemical.
microsomal triglyceride transfer protein (MTP), sequence (P55157 19-894, species assumed): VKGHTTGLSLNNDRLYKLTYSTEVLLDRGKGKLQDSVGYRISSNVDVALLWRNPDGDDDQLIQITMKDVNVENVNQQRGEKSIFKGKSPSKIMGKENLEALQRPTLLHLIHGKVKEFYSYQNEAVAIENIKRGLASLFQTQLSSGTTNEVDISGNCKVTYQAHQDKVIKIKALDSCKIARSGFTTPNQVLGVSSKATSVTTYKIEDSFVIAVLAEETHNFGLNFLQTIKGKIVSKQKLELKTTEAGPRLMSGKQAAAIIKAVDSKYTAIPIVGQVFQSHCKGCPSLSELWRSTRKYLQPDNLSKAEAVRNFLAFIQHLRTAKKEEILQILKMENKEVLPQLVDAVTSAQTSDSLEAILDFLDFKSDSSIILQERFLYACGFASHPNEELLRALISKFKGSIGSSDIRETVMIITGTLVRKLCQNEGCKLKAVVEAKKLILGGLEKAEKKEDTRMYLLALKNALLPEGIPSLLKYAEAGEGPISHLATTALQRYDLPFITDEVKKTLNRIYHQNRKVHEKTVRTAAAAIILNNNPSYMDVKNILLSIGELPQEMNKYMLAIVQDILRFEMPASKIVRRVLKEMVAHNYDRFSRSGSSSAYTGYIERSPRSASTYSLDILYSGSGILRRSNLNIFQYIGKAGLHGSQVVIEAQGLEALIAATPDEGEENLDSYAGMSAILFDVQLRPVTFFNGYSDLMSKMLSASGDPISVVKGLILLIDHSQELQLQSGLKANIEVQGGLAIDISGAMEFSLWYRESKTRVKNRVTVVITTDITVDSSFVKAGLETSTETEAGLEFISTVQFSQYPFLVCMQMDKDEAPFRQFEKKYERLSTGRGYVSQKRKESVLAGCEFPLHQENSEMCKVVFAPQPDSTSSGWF
microsomal triglyceride transfer protein (MTP), sequence (P07237 18-508 partner, species assumed): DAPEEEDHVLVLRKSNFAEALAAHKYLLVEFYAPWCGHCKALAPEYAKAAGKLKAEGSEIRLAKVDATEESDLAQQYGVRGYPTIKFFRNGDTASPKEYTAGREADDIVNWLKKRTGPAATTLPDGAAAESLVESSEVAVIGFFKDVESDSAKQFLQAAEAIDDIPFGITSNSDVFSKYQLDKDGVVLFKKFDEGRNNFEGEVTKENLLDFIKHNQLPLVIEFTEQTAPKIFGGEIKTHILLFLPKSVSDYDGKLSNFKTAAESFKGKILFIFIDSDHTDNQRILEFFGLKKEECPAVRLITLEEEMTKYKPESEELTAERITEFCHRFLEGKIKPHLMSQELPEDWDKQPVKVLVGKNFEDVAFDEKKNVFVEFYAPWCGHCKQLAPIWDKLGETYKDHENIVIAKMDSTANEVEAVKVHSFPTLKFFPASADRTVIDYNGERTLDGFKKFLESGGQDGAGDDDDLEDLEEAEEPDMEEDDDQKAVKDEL
Conditions: not given
Description: as §1
On to `COC(=O)N1CCN([C@@H]2Cc3ccc(NC(=O)c4cccc(C)c4-c4ccc(C(F)(F)F)cc4)cc3C2)CC1` [Example 14, (R)-6-Methyl-4′-trifluoromethyl-1,1′-biphenyl-N-[2-[4-(methoxycarbonyl)-piperazino]indan-5-yl]-2-carboxamide], for which the IC50 was roughly 40 nM.

Values taken from US6878707B2, “Carboxamides useful as inhibitors of microsomal triglyceride transfer protein and of apolipoprotein b secretion” (Novartis AG, priority 2001, dated 2005).
